Reference: patent US20040087571A1, “Methods of using CCR1 antagonists as immunomodulatory agents” (Pfizer Inc, priority 2002, published 2004)

`COc1cc(CCNC(=O)[C@H](CCC(C)(C)F)C[C@H](O)[C@H](Cc2ccccc2)NC(=O)c2cnc3ccccc3n2)cc(OC)c1` [Example 232, Quinoxaline-2-carboxylic acid {1(S)-benzyl-4(R)-[2-(3,5-dimethoxy-phenyl)-ethylcarbamoyl]-7-fluoro-2(S)-hydroxy-7-methyl-octyl}-amide] showed a melting point of 109 to 112 °C.
`CNC(=O)C[C@H](C[C@H](O)[C@H](Cc1ccccc1)NC(=O)c1cnc2ccccc2n1)C(=O)NC` [Example 151, 2(S)-{2(S)-hydroxy-4-phenyl-3(S)-[(quinoxaline-2-carbonyl)-amino]-butyl}-N1,N4-dimethyl-succinamide] gave a melting point of 178 to 180 °C.
`COc1cccc(C[C@H](C[C@H](O)[C@H](Cc2ccccc2)NC(=O)c2cnc3ccccc3n2)C(N)=O)c1` [Example 299, Quinoxaline-2-carboxylic acid [1(S)-benzyl-4(R)-carbamoyl-2(S)-hydroxy-5-(3-methoxy-phenyl)-pentyl]-amide] gave a melting point of 147 to 148 °C.
`NC(=O)[C@@H](C[C@H](O)[C@H](Cc1ccccc1)NC(=O)c1cnc2ccccc2n1)C1(O)C2CCCC1CCC2` (stereo partly drawn) [Example 296, Quinoxaline-2-carboxylic acid [1(S)-benzyl-4(S)-carbamoyl-2(S)-hydroxy-4-(9-hydroxy-bicyclo[3.3.1]non-9-yl)-butyl]-amide] gave a melting point of 268 to 269 °C.
For `CNC(=O)[C@H](CC1CCC(F)(F)CC1)C[C@H](O)[C@H](Cc1ccccc1)NC(=O)c1cnc2ccccc2n1` [Example 132, Quinoxaline-2-carboxylic acid [1(S)-benzyl-5-(4,4-difluoro-cyclohexyl)-2(S)-hydroxy-4(R)-methylcarbamoyl-pentyl]-amide], the melting point was 170 to 172 °C.
`CC(C)CC[C@H](C[C@H](O)[C@H](Cc1cccc(F)c1)NC(=O)c1cnc2ccccc2n1)C(N)=O` [Example 135, Quinoxaline-2-carboxylic acid [4(R)-carbamoyl-1(S)-(3-fluoro-benzyl)-2(S)-hydroxy-7-methyl-octyl]-amide] gave a melting point of 191 to 191.5 °C.
`CC(C)(F)CC[C@H](C[C@H](O)[C@H](Cc1ccc(Cl)c(Cl)c1)NC(=O)c1cnc2c(F)c(F)ccc2c1)C(N)=O` [Example 156, 7,8-Difluoro-quinoline-3-carboxylic acid [4(R)-carbamoyl-1(S)-(3,4-dichloro-benzyl)-7-fluoro-2(S)-hydroxy-7-methyl-octyl]-amide] showed a melting point of 187 to 189 °C.
With `NC(=O)[C@@H](C[C@H](O)[C@H](Cc1ccccc1)NC(=O)c1cnc2ccccc2n1)C1(O)CCCCC1` [Example 260, Quinoxaline-2-carboxylic acid [1(S)-benzyl-4(S)-carbamoyl-2(S)-hydroxy-4-(1-hydroxy-cyclohexyl)-butyl]-amide] the melting point was 210 to 211 °C.
`CNC(=O)[C@H](CC(C)C)C[C@H](O)[C@H](Cc1ccc(O)cc1)NC(=O)c1cnc2ccccc2n1` [Example 65, Quinoxaline-2-carboxylic acid [2(S)-hydroxy-1(S)-(4-hydroxy-benzyl)-6-methyl-4(R)-methylcarbamoyl-heptyl]-amide] showed a melting point of 170 to 172 °C.
`CC(C)(F)CC[C@H](C[C@H](O)[C@H](Cc1ccc(I)cc1)NC(=O)c1cnc2ccccc2n1)C(N)=O` [Example 250, Quinoxaline-2-carboxylic acid [4(R)-carbamoyl-7-fluoro-2(S)-hydroxy-1(S)-(4-iodo-benzyl)-7-methyl-octyl]-amide] gave a melting point of 185.5 to 187.5 °C.
Compound `NC(=O)[C@H](Cc1ccc(F)cc1)C[C@H](O)[C@H](Cc1ccccc1)NC(=O)c1cnc2ccccc2n1` [Example 194, Quinoxaline-2-carboxylic acid [1(S)-benzyl-4(R)-carbamoyl-5-(4-fluoro-phenyl)-2(S)-hydroxy-pentyl]-amide] has a melting point of 164 to 166 °C.
Work on `CNC(=O)[C@H](CC(C)C)C[C@H](O)[C@H](Cc1ccc(O)cc1)NC(=O)c1cnc2ccccc2c1` [Example 44, Quinoline-3-carboxylic acid [2(S)-hydroxy-1(S)-(4-hydroxy-benzyl)-6-methyl-4(R)-methylcarbamoyl-heptyl]-amide] yielded a melting point of 220.5 to 222.5 °C.
`CC(C)(F)CC[C@H](C[C@H](O)[C@H](Cc1ccccc1)NC(=O)c1cnc2ccccc2n1)C(=O)NCCc1cccs1` [Example 229, Quinoxaline-2-carboxylic acid [1(S)-benzyl-7-fluoro-2(S)-hydroxy-7-methyl-4(R)-(2-thiophen-2-yl-ethylcarbamoyl)-octyl]-amide] showed a melting point of 152 to 154 °C.
With `CC1(C)CC([C@H](C[C@H](O)[C@H](Cc2ccccc2)NC(=O)c2cnc3ccccc3n2)C(N)=O)CC(C)(C)C1` [Example 179, Quinoxaline-2-carboxylic acid [1(S)-benzyl-4(S)-carbamoyl-2(S)-hydroxy-4-(3,3,5,5-tetramethyl-cyclohexyl)-butyl]-amide] the melting point was 188 to 190 °C.
Work on `NC(=O)[C@@H](C[C@H](O)[C@H](Cc1ccccc1)NC(=O)c1cnc2ccccc2n1)C1(O)CCSCC1` [Example 269, Quinoxaline-2-carboxylic acid [1(S)-benzyl-4(S)-carbamoyl-2(S)-hydroxy-4-(4-hydroxy-tetrahydro-thiopyran-4-yl)-butyl]-amide] yielded a melting point of 123 to 125 °C.
`CNC(=O)[C@H](CC(C)C)C[C@H](O)[C@H](CC1CCC(F)(F)CC1)NC(=O)c1cnc2ccccc2n1` [Example 108, Quinoxaline-2-carboxylic acid [1(S)-(4,4-difluoro-cyclohexylmethyl)-2(S)-hydroxy-6-methyl-4(R)-methylcarbamoyl-heptyl]-amide] showed a melting point of 95 to 98 °C.
`NC(=O)[C@@H](C[C@H](O)[C@H](Cc1ccccc1)NC(=O)c1cnc2ccccc2n1)C1Cc2ccccc2C1` [Example 192, Quinoxaline-2-carboxylic acid (1(S)-benzyl-4(S)-carbamoyl-2(S)-hydroxy-4-indan-2-yl-butyl)-amide] gave a melting point of 190 to 191 °C.
Work on `CC(C)(O)CC[C@H](C[C@H](O)[C@H](Cc1cccc2ccccc12)NC(=O)c1cnc2ccccc2n1)C(N)=O` [Example 324, Quinoxaline-2-carboxylic acid (4(R)-carbamoyl-2(S),7-dihydroxy-7-methyl-1(S)-naphthalen-1-ylmethyl-octyl)-amide] yielded a melting point of 155 to 158 °C.
`CC(C)(F)CC[C@H](C[C@H](O)[C@@H](NC(=O)c1cnc2ccccc2n1)c1ccccc1)C(N)=O` [Example 266, Quinoxaline-2-carboxylic acid (4(R)-carbamoyl-7-fluoro-2(S)-hydroxy-7-methyl-1(S)-phenyl-octyl)-amide] showed a melting point of 159 to 160.5 °C.
`CC(C)(F)CC[C@H](C[C@H](O)[C@H](Cc1ccccc1)NC(=O)c1cnc2ccccc2n1)C(=O)NCc1ccco1` [Example 234, Quinoxaline-2-carboxylic acid {1(S)-benzyl-7-fluoro-4(R)-[(furan-2-ylmethyl)-carbamoyl]-2(S)-hydroxy-7-methyl-octyl}-amide] gave a melting point of 155.5 to 156.5 °C.
`CC1CC(C)CC([C@@H](C[C@H](O)[C@H](Cc2ccccc2)NC(=O)c2cnc3ccccc3n2)C(N)=O)C1` (stereo partly drawn) [Example 210, Quinoxaline-2-carboxylic acid [1(S)-benzyl-4(R)-carbamoyl-4-(3,5-dimethyl-cyclohexyl)-2(S)-hydroxy-butyl]-amide] gave a melting point of 221 to 222 °C.
`NC(=O)[C@H](Cc1cccc(F)c1)C[C@H](O)[C@H](Cc1ccccc1)NC(=O)c1cnc2ccccc2n1` [Example 292, Quinoxaline-2-carboxylic acid [1(S)-benzyl-4(R)-carbamoyl-5-(3-fluoro-phenyl)-2(S)-hydroxy-pentyl]-amide] showed a melting point of 176 to 179 °C.
Work on `O=C(N[C@@H](Cc1ccccc1)[C@@H](O)C[C@H](C(=O)NO)C1(O)CCCC1)c1cnc2ccccc2n1` [Example 281, Quinoxaline-2-carboxylic acid [1(S)-benzyl-2(S)-hydroxy-4(S)-hydroxycarbamoyl-4-(1-hydroxy-cyclopentyl)-butyl]-amide] yielded a melting point of 110 to 112 °C.
`NC(=O)[C@@H](C[C@H](O)[C@H](Cc1ccccc1)NC(=O)c1cnc2ccccc2n1)C1(O)C2CC3CC(C2)CC1C3` (stereo partly drawn) [Example 295, Quinoxaline-2-carboxylic acid [1(S)-benzyl-4(S)-carbamoyl-2(S)-hydroxy-4-(2-hydroxy-adamantan-2-yl)-butyl]-amide] gave a melting point of 206 to 207 °C.
For `CC1(C)CCC(O)([C@H](C[C@H](O)[C@H](Cc2ccccc2)NC(=O)c2cnc3ccccc3n2)C(=O)NO)CC1` [Example 305, Quinoxaline-2-carboxylic acid [1(S)-benzyl-2(S)-hydroxy-4(S)-hydroxycarbamoyl-4-(1-hydroxy-4,4-dimethyl-cyclohexyl)-butyl]-amide], the melting point was 118 to 123 °C.
For `CC(C)CC[C@H](C[C@H](O)[C@H](Cc1cscn1)NC(=O)c1cnc2ccccc2n1)C(N)=O` [Example 178, Quinoxaline-2-carboxylic acid (4(R)-carbamoyl-2(S)-hydroxy-7-methyl-1(S)-thiazol-4-ylmethyl-octyl)-amide], the melting point was 195 to 196 °C.
In the case of `CC1CCC(O)([C@H](C[C@H](O)[C@H](Cc2ccccc2)NC(=O)c2cnc3ccccc3n2)C(N)=O)CC1` (stereo partly drawn) [Example 278, Quinoxaline-2-carboxylic acid [1(S)-benzyl-4(S)-carbamoyl-2(S)-hydroxy-4-(1-hydroxy-4-methyl-cyclohexyl)-butyl]-amide], the melting point is reported as 230 to 233 °C.
`CC(C)C[C@H](C[C@H](O)[C@H](CC1CCCCC1)NC(=O)c1cnc2ccccc2c1)C(N)=O` [Example 20, Quinoline-3-carboxylic acid (4(R)-carbamoyl-1(S)-cyclohexylmethyl-2(S)-hydroxy-6-methyl-heptyl)-amide] showed a melting point of 186 to 188 °C.
`NC(=O)[C@@H](C[C@H](O)[C@H](Cc1ccccc1)NC(=O)c1cnc2ccccc2c1)C1CCCCC1` [Example 261, Quinoline-3-carboxylic acid (1(S)-benzyl-4(S)-carbamoyl-4-cyclohexyl-2(S)-hydroxy-butyl)-amide] gave a melting point of 231 °C.
`NC(=O)[C@H](Cc1ccccc1)C[C@H](O)[C@H](Cc1ccccc1)NC(=O)c1cnc2ccccc2c1` [Example 287, Quinoline-3-carboxylic acid (1(S)-benzyl-4(R)-carbamoyl-2(S)-hydroxy-5-phenyl-pentyl)-amide] gave a melting point of 203 to 206 °C.
